Measured values: PubChem BioAssay AID1918994 (Molecular Pharmacology Branch, DTP, NCI, 2023)
Values belong to the compound of their own block, whether it stands above or below them.

System: 292921-168-R-J2-PDC complex spheroid growth
Assay: Anticancer human tumor 292921-168-R-J2-PDC patient-derived pancreatic carcinoma cell line growth inhibition [AhR]
Conditions: for IC50: curve of first compound; for viability, T/C: stronger effect = lower value
How it was run: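 Agents were dosed in half-log steps down from roughly clinical Cmax, or from 10 microM where Cmax was unknown, alone and with AhR antagonists. Read-out: percent test/control growth of tumor spheroids containing HUVEC and MSC stromal cells.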

[1] = second compound 0.1 µM, first compound 0.0316 µM
[2] = second compound 0.1 µM, first compound 0.1 µM
[3] = second compound 0.316 µM, first compound 0.0316 µM
[4] = second compound 0.316 µM, first compound 0.1 µM
[5] = second compound 1 µM, first compound 0.0316 µM
[6] = second compound 1 µM, first compound 0.1 µM
[7] = second compound 3.16 µM, first compound 0.0316 µM
[8] = second compound 3.16 µM, first compound 0.1 µM
[9] = second compound 10 µM, first compound 0.0316 µM
[10] = second compound 10 µM, first compound 0.1 µM
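Also: spheroids exposed to compounds for seven days after three days of growth.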

IC50 (second compound 0.1 µM): > 100 nM
IC50 (second compound 0.316 µM): > 100 nM
IC50 (second compound 1 µM): > 100 nM
IC50 (second compound 3.16 µM): > 100 nM
IC50 (second compound 10 µM): 35.1 nM
SMILES: Cn1ncnc1C1c2n[nH]c(=O)c3cc(F)cc(c23)NC1c1ccc(F)cc1 (stereo not given) + Cc1cncc(-c2nc(NCCc3c[nH]c4ccccc34)c3ncn(C(C)C)c3n2)c1
viability, T/C (second compound 0.1 µM, first compound 0.000316 µM): 94.3%
viability, T/C (second compound 0.1 µM, first compound 0.001 µM): 96.7%
viability, T/C (second compound 0.1 µM, first compound 0.00316 µM): 86.5%
viability, T/C (second compound 0.1 µM, first compound 0.01 µM): 95.5%
viability, T/C [1]: 83.9%
viability, T/C [2]: 82.6%
viability, T/C (second compound 0.316 µM, first compound 0.000316 µM): 91.4%
viability, T/C (second compound 0.316 µM, first compound 0.001 µM): 102%
viability, T/C (second compound 0.316 µM, first compound 0.00316 µM): 83.6%
viability, T/C (second compound 0.316 µM, first compound 0.01 µM): 89.2%
viability, T/C [3]: 83.7%
viability, T/C [4]: 76.7%
viability, T/C (second compound 1 µM, first compound 0.000316 µM): 80.8%
viability, T/C (second compound 1 µM, first compound 0.001 µM): 87.3%
viability, T/C (second compound 1 µM, first compound 0.00316 µM): 85.6%
viability, T/C (second compound 1 µM, first compound 0.01 µM): 73.8%
viability, T/C [5]: 74.5%
viability, T/C [6]: 81.9%
viability, T/C (second compound 3.16 µM, first compound 0.000316 µM): 68.7%
viability, T/C (second compound 3.16 µM, first compound 0.001 µM): 71.4%
viability, T/C (second compound 3.16 µM, first compound 0.00316 µM): 72.3%
viability, T/C (second compound 3.16 µM, first compound 0.01 µM): 56.2%
viability, T/C [7]: 60.1%
viability, T/C [8]: 66.2%
viability, T/C (second compound 10 µM, first compound 0.000316 µM): 50.8%
viability, T/C (second compound 10 µM, first compound 0.001 µM): 54.4%
viability, T/C (second compound 10 µM, first compound 0.00316 µM): 55.5%
viability, T/C (second compound 10 µM, first compound 0.01 µM): 52.5%
viability, T/C [9]: 47.7%
viability, T/C [10]: 48%

IC50 (second compound 0.1 µM): 227 nM
IC50 (second compound 0.316 µM): 224 nM
IC50 (second compound 1 µM): 231 nM
IC50 (second compound 3.16 µM): 229 nM
IC50 (second compound 10 µM): 221 nM
SMILES: NS(=O)(=O)OCC1CC(n2ccc3c(NC4CCc5ccccc54)ncnc32)CC1O (stereo not given) + Cc1cncc(-c2nc(NCCc3c[nH]c4ccccc34)c3ncn(C(C)C)c3n2)c1
viability, T/C [1]: 136%
viability, T/C [2]: 111%
viability, T/C (second compound 0.1 µM, first compound 0.316 µM): 25.1%
viability, T/C (second compound 0.1 µM, first compound 1 µM): 6.77%
viability, T/C (second compound 0.1 µM, first compound 3.16 µM): 5.38%
viability, T/C (second compound 0.1 µM, first compound 10 µM): 5.4%
viability, T/C [3]: 133%
viability, T/C [4]: 108%
viability, T/C (second compound 0.316 µM, first compound 0.316 µM): 25.1%
viability, T/C (second compound 0.316 µM, first compound 1 µM): 7.33%
viability, T/C (second compound 0.316 µM, first compound 3.16 µM): 5.81%
viability, T/C (second compound 0.316 µM, first compound 10 µM): 5.63%
viability, T/C [5]: 117%
viability, T/C [6]: 104%
viability, T/C (second compound 1 µM, first compound 0.316 µM): 30%
viability, T/C (second compound 1 µM, first compound 1 µM): 6.44%
viability, T/C (second compound 1 µM, first compound 3.16 µM): 6.99%
viability, T/C (second compound 1 µM, first compound 10 µM): 7.06%
viability, T/C [7]: 111%
viability, T/C [8]: 93.7%
viability, T/C (second compound 3.16 µM, first compound 0.316 µM): 33.1%
viability, T/C (second compound 3.16 µM, first compound 1 µM): 8.82%
viability, T/C (second compound 3.16 µM, first compound 3.16 µM): 7.53%
viability, T/C (second compound 3.16 µM, first compound 10 µM): 6.05%
viability, T/C [9]: 69.9%
viability, T/C [10]: 76.7%
viability, T/C (second compound 10 µM, first compound 0.316 µM): 39.5%
viability, T/C (second compound 10 µM, first compound 1 µM): 13%
viability, T/C (second compound 10 µM, first compound 3.16 µM): 9.88%
viability, T/C (second compound 10 µM, first compound 10 µM): 7.28%
